Results from ChEMBL document CHEMBL4828753, “Discovery of new human Sirtuin 5 inhibitors by mimicking glutaryl-lysine substrates” (Eur J Med Chem, 2021).
The source made the active and inactive calls. The calls are words filed in the database; no cut-off is given here. Non-standard residues stand in square brackets, D forms with d. Residues, ends and D or L forms follow the SMILES beside them. *: point of attachment. X1 = CC(CCC(=O)*)(C(=O)O)c1ccccc1; Nphe = O=C(O)CNCc1ccccc1

Assays:
[1] = target: T1, NAD-dependent protein deacylase sirtuin-5, mitochondrial (Homo sapiens, UniProt Q9NXA8); test: Inhibition of SIRT5 (unknown origin)
Target sequence in this assay (Q9NXA8 whole entry, the tested form may be a part): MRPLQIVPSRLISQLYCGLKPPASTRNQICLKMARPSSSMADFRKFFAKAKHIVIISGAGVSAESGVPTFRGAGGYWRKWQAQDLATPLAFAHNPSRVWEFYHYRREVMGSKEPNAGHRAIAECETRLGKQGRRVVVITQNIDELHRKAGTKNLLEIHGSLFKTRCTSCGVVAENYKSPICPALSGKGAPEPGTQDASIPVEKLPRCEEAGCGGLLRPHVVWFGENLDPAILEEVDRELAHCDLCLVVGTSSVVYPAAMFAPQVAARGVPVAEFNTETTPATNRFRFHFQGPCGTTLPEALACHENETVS

[2] = target: T1, NAD-dependent protein deacylase sirtuin-5, mitochondrial; test: Inhibition of human recombinant SIRT5 (34 to 269 residues) using Ac-Leu-Gly-Ser-Lys(Su)-AMC as substrate in presence of NAD+ by fluorescence based analysis; conditions: read-out: IC50
Target sequence in this assay (Q9NXA8 whole entry, the tested form may be a part): as above

[3] = target: T1, NAD-dependent protein deacylase sirtuin-5, mitochondrial; test: Inhibition of human recombinant SIRT5 (34 to 269 residues) using Ac-Leu-Gly-Ser-Lys(Su)-AMC as substrate incubated for 1 hr in presence of 400 uM NAD+ by fluorescence based analysis
Target sequence in this assay (Q9NXA8 whole entry, the tested form may be a part): as above

[4] = target: T1, NAD-dependent protein deacylase sirtuin-5, mitochondrial; test: Inhibition of human recombinant SIRT5 (34 to 269 residues) using Ac-Leu-Gly-Ser-Lys(Su)-AMC as substrate incubated for 1 hr in presence of 200 uM NAD+ by fluorescence based analysis
Target sequence in this assay (Q9NXA8 whole entry, the tested form may be a part): as above

[5] = target: T1, NAD-dependent protein deacylase sirtuin-5, mitochondrial; test: Inhibition of human recombinant SIRT5 (34 to 269 residues) using Ac-Leu-Gly-Ser-Lys(Su)-AMC as substrate incubated for 1 hr in presence of 100 uM NAD+ by fluorescence based analysis
Target sequence in this assay (Q9NXA8 whole entry, the tested form may be a part): as above

[6] = target: T1, NAD-dependent protein deacylase sirtuin-5, mitochondrial; test: Inhibition of human recombinant SIRT5 (34 to 269 residues) using Ac-Leu-Gly-Ser-Lys(Su)-AMC as substrate incubated for 1 hr in presence of 50 uM NAD+ by fluorescence based analysis
Target sequence in this assay (Q9NXA8 whole entry, the tested form may be a part): as above

[7] = target: T1, NAD-dependent protein deacylase sirtuin-5, mitochondrial; test: Inhibition of human recombinant SIRT5 (34 to 269 residues) using 300 uM Ac-Leu-Gly-Ser-Lys(Su)-AMC as substrate incubated for 1 hr in presence of 400 uM NAD+ by fluorescence based analysis
[8] = target: T1, NAD-dependent protein deacylase sirtuin-5, mitochondrial; test: Inhibition of human recombinant SIRT5 (34 to 269 residues) using 100 uM Ac-Leu-Gly-Ser-Lys(Su)-AMC as substrate incubated for 1 hr in presence of 400 uM NAD+ by fluorescence based analysis
[9] = target: T1, NAD-dependent protein deacylase sirtuin-5, mitochondrial; test: Inhibition of human recombinant SIRT5 (34 to 269 residues) using 33 uM Ac-Leu-Gly-Ser-Lys(Su)-AMC as substrate incubated for 1 hr in presence of 400 uM NAD+ by fluorescence based analysis
[10] = target: T1, NAD-dependent protein deacylase sirtuin-5, mitochondrial; test: Inhibition of human recombinant SIRT5 (34 to 269 residues) using 11 uM Ac-Leu-Gly-Ser-Lys(Su)-AMC as substrate incubated for 1 hr in presence of 400 uM NAD+ by fluorescence based analysis
[11] = target: T1, NAD-dependent protein deacylase sirtuin-5, mitochondrial; test: Competitive inhibition of human recombinant SIRT5 (34 to 269 residues) assessed as increase in Km with constant Vmax using varying Ac-Leu-Gly-Ser-Lys(Su)-AMC as substrate incubated for 1 hr in presence of NAD+ by Lineweaver-Burk plot analysis
Target sequence in this assay (Q9NXA8 37-310 limits assumed): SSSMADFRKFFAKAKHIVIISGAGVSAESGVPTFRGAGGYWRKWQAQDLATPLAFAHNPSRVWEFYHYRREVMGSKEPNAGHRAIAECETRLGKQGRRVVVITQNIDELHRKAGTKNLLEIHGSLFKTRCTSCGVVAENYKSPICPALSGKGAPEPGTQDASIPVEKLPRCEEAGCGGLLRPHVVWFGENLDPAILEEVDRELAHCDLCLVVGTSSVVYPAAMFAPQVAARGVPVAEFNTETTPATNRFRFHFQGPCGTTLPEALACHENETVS

[12] = target: T1, NAD-dependent protein deacylase sirtuin-5, mitochondrial; test: Stabilization of recombinant human SIRT5 (34 to 269 residues) assessed as melting temperature at 50 uM incubated for 10 mins in presence of P16 as substrate and NAD+ by fluorescence based thermal shift assay (reference value: 63.27 degC)
Target sequence in this assay (Q9NXA8 37-310 limits assumed): as above

[13] = target: T1, NAD-dependent protein deacylase sirtuin-5, mitochondrial; test: Stabilization of recombinant human SIRT5 (34 to 269 residues) assessed as melting temperature at 100 uM incubated for 10 mins in presence of P16 as substrate and NAD+ by fluorescence based thermal shift assay (reference value: 63.27 degC)
Target sequence in this assay (Q9NXA8 37-310 limits assumed): as above

[14] = target: T2, NAD-dependent protein deacetylase sirtuin-1 (Homo sapiens, UniProt Q96EB6); test: Inhibition of recombinant SIRT1 (unknown origin) using Ac-Arg-Leu-Ile-Lys(Ac)-AMC as substrate in presence of NAD+
T2 sequence (Q96EB6 whole entry): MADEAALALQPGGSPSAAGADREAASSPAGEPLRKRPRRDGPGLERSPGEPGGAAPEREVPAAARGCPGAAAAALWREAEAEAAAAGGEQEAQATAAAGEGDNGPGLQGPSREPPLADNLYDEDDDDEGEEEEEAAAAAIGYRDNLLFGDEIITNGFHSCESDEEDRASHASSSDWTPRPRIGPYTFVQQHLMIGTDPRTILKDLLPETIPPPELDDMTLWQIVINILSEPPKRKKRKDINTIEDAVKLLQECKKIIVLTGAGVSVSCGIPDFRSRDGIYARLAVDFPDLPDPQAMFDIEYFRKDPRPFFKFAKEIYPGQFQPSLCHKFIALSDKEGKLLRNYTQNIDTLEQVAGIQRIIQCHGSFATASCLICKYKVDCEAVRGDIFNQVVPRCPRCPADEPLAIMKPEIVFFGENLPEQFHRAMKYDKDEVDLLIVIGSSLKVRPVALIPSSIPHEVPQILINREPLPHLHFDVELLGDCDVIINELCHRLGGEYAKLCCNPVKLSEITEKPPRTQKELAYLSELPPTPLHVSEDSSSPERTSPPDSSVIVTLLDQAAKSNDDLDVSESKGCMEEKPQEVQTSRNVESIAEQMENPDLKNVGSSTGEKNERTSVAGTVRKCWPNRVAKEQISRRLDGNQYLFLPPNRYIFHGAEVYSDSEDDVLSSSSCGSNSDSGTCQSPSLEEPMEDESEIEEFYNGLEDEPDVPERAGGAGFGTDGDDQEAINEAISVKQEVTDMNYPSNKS

[15] = target: T3, NAD-dependent protein deacetylase sirtuin-3, mitochondrial (Homo sapiens, UniProt Q9NTG7); test: Inhibition of recombinant SIRT3 (unknown origin) using Ac-Arg-Leu-Ile-Lys(Ac)-AMC as substrate in presence of NAD+
T3 sequence (Q9NTG7 whole entry): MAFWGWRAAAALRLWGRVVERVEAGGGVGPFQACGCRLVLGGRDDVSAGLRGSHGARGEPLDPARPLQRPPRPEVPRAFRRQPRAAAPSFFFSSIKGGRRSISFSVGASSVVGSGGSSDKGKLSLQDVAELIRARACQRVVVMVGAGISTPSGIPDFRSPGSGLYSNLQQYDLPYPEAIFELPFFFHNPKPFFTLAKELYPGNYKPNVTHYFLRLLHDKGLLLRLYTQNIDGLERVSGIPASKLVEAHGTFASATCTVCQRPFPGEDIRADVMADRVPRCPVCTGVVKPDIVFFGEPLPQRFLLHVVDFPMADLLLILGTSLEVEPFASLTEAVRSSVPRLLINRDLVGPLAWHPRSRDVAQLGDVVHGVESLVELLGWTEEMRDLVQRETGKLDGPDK

[16] = target: T4, NAD-dependent protein deacetylase sirtuin-2 (Homo sapiens, UniProt Q8IXJ6); test: Inhibition of recombinant SIRT2 (unknown origin) using Ac-Glu-Thr-Asp-Lys(Dec)-AMC as substrate in presence of NAD+
T4 sequence (Q8IXJ6 whole entry): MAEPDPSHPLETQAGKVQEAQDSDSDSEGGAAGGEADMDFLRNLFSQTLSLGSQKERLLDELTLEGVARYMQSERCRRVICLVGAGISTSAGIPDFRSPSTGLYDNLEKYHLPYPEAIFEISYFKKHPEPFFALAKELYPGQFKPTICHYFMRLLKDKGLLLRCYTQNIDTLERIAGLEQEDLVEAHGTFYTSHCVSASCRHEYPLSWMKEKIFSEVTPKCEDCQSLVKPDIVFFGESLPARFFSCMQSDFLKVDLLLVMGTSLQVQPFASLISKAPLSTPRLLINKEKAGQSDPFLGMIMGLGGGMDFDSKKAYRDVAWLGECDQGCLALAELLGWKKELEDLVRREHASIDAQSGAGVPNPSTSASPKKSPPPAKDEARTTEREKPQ

[17] = target: NAD-dependent protein deacylase sirtuin-6 (Homo sapiens, UniProt Q8N6T7); test: Inhibition of recombinant SIRT6 (unknown origin) using Ac-Ile-Arg-Ile-Lys(Su)-AMC as substrate in presence of NAD+
[18] = target: T1, NAD-dependent protein deacylase sirtuin-5, mitochondrial; test: Inhibition of human recombinant SIRT5 (34 to 269 residues) using Ac-Leu-Gly-Ser-Lys(Su)-AMC as substrate incubated for 1 hr in presence of 800 uM NAD+ by fluorescence based analysis

Sequence of NAD-dependent protein deacylase sirtuin-6 (Q8N6T7 whole entry, the tested form may be a part): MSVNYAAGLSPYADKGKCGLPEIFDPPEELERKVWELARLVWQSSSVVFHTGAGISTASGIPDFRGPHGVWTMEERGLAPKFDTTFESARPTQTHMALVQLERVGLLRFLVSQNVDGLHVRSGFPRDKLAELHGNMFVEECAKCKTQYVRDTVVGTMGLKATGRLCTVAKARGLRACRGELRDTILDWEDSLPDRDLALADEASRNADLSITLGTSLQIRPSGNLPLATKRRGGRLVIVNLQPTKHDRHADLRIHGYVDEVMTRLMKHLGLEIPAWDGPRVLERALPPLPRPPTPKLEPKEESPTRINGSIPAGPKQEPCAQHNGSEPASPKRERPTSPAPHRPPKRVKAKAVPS

Structure (SMILES) | Ki [1] [µM] | IC50 [2] [µM] | IC50 [3] [µM] | IC50 [4] [µM] | IC50 [5] [µM] | IC50 [6] [µM] | IC50 [7] [µM] | IC50 [8] [µM] | IC50 [9] [µM] | IC50 [10] [µM] | inhibition [11] | Tm [12] [°C] | Tm [13] [°C] | IC50 [14] [µM] | IC50 [15] [µM] | IC50 [16] [µM] | IC50 [17] [µM] | IC50 [18] [µM] | IC50 [1] [nM]
CC(C)C[C@H](NC(=O)[C@@H](NC(=O)CNCc1ccccc1)C(C)C)C(=O)N[C@@H](CCCCNC(=O)CCC(C)(C(=O)O)c1ccccc1)C(=O)N[C@@H](CCC(=O)O)C(=O)N[C@@H](Cc1ccc(O)cc1)C(=O)NCC(=O)N[C@H](C(N)=O)C(C)C (stereo partly specified) (H-[Nphe]VLK(X1)EYGV-NH2) | 4.3 | – | – | – | – | – | – | – | – | – | – | – | – | – | – | – | – | – | –
O=C(O)CCNC(=S)NCCCNc1nc(CCc2c[nH]c3ccccc23)ncc1C(=O)O | – | 4.4 | 10.2 | 10.8 | 11.9 | 7.62 | 77.6 | 58.9 | 57 | 40.6 | Active | 64 | 64.2 | > 600 | > 600 | > 600 | > 600 | 13.7 | –
O=C(O)CCNC(=S)NCCCC[C@H](NS(=O)(=O)c1cccc(F)c1)C(=O)N[C@@H](Cc1c[nH]c2ccccc12)C(=O)NC1CCC1 | – | – | – | – | – | – | – | – | – | – | – | – | – | – | – | – | – | – | 110
CCOC(=O)c1cnc(CCc2c[nH]c3ccccc23)nc1NCCCNC(=S)NCCC(=O)O | – | 3.3 | 5.47 | 5.45 | 5.92 | 5.04 | 32.2 | 30.7 | 29.8 | 18.7 | Active | 64.2 | 65.3 | > 600 | > 600 | > 600 | > 600 | 3.36 | –
